Measured values published in patent US12527874B2, “Bioorthogonal compositions” (TAMBO, INC., priority 2015, dated 2026).

How the values were obtained:
[1] = tested on: human soft tissue sarcoma (HT-1080) xenografts; experiment: Inhibition of HT1080 xenograft growth (soft tissue sarcoma model, HMT injected near tumor); format: in vivo, mice
Description: HMT was injected near the palpable soft tissue sarcoma tumors after 18 days when their size reached an average of 195 mm3 (range, 90-500 mm3). The mice were separated into two cohorts: (i) 3 intravenous doses of 14 μmoles/kg of doxorubicin every 4 days (maximum tolerable dose), (27, 49) or (ii) daily doses of 14 μmoles/kg of doxorubicin for 10 days (FIG. 18B). Tumor volumes were measured twice a week for 13 weeks (FIG. 18A). No further therapies were given to the subjects 28 days post tumoral implantation (dpi).

[2] = 3 days after the last treatment, after injection of HMT
Description: Samples were collected 3 days after the last treatment. Data are means±SD (n=2).
Reticulocyte measurements. Two mice per condition were anesthetized with isoflurane anesthesia 3 days after the last treatment during the nadir of reticulocyte decrease. (27) Blood was collected by cardiac puncture in a syringe containing lithium heparin to prevent coagulation. RBC and reticulocyte concentrations were determined the same day using a DEXX ProCyte Dx Hematology Analyzer (IDEXX Laboratories, Inc.).

[3] = xenograft mice, HMT injected
HT1080 cells = experiment: MTT cytotoxicity assay; conditions: read-out: 50% growth inhibitory concentration (IC50), 48 h treatment followed by additional 48 h in DMEM
Description: Cells were treated with the drug or the pro-drug for 48 h, followed by additional 48 h in DMEM, prior to measuring their viability.
HT1080 cells were purchased from ATCC (cat. #CCL-121), and propagated in Dulbecco's modified Eagle's medium (DMEM; Meditech, Inc. Corning, Manassas, VA) containing 5% fetal bovine serum (FBS; HyClone, Logan Utah), supplemented with 100 U/ml penicillin, and 100 μg/ml streptomycin (Life Tech Corp., Grand Island, NY) at 37° C. in a 5% CO2 incubator.
Day one: using 96-well format, plated˜100 cells/well in 100 μL DMEM and incubated for 24 h. […] Day four: the medium was replaced with 100 μL of fresh DMEM and the cells were incubated for 48 h. Day six: DMEM was removed and the cells were incubated with 100 μL of MTT solution (0.6 mg/mL in DMEM) per well for 4 h at 37° C. The MTT solution was then replaced with 100 μL of DMSO containing 4% aqueous ammonia per well to dissolve the purple formazan crystals. After 30 min, the absorbance of each well at 550 nm was recorded using BioTek Synergy HT multi detection microplate reader. Results were averaged from three independent arrays of triplicate experiments.

reticulocyte counts [2]: dramatic decrease in reticulocytes
SMILES: COc1cccc2c1C(=O)c1c(O)c3c(c(O)c1C2=O)C[C@@](O)(C(=O)CO)C[C@@H]3O[C@H]1C[C@H](N)[C@H](O)[C@H](C)O1 [doxorubicin]
median tumor size ([1]; 2 weeks after the last treatment dose (40 dpi), HMT near tumor): undetectable
mice with a mild response ([1]; 40 dpi, HMT near tumor): 1/5
median tumor size ([1]; 30 days after the last treatment dose (60 dpi), HMT near tumor): greater than 2000 mm^3
mice that reached the study endpoint of 2000 mm3 ([1]; by 88 dpi): 5/5
body weight lost [3]: about 20%
IC50 (HT1080 cells): 18 nM
